The source made the active and inactive calls. The calls are words filed in the database; no cut-off is given here.
Key:
[1] = system: Human immunodeficiency virus 1; experiment: Antiviral activity against HIV1 LAI infected in human MT2 cells by MTT assay; format: functional, organism-based; details: Human immunodeficiency virus 1, LAI
[2] = system: Human immunodeficiency virus 2; experiment: Antiviral activity against HIV2 EHO infected in human MT2 cells by MTT assay; format: functional, organism-based; details: Human immunodeficiency virus 2, EHO
[3] = system: Human immunodeficiency virus 2; experiment: Antiviral activity against HIV2 ROD infected in human MT2 cells by MTT assay; format: functional, organism-based; details: Human immunodeficiency virus 2, ISOLATE ROD
[4] = Cytotoxicity against human MT2 cells after 7 days by MTT assay; format: cell-based
[5] = Selectivity ratio of CC50 for human MT2 cells to EC50 for HIV1 LAI infected human MT2 cells; format: ADME, cell-based; details: MT2 cells (CC50) and HIV1 LAI infected MT2 cells (EC50)
[6] = system: Human immunodeficiency virus 1; experiment: Antiviral activity against HIV1 expressing protease L10F/D30N/K45I/A71V/T74S mutant infected in human MT4 cells selected at 5 uM of nelfinavir by MTT assay; format: functional, organism-based; details: Human immunodeficiency virus 1, MT4
[7] = system: Human immunodeficiency virus 1; experiment: Ratio of EC50 for multidrug-resistant HIV1 isolate G containing L10I, V11I, T12E, I15V, L19I,R41K, M46L, L63P, A71T, V82A, and L90M mutant to EC50 for wild type HIV1 ERS104 containing protease […] infected in human PHA-PBMC cells; format: functional
[8] = system: Human immunodeficiency virus 1; experiment: Antiviral activity against HIV1 NL4-3 infected in human MT4 cells at 1 uM after 20 passages by MTT assay; format: functional, organism-based
[9] = system: Human immunodeficiency virus 1; experiment: Antiviral activity against HIV1 NL4-3 infected in human MT4 cells at 1 uM after 33 passages by MTT assay; format: functional, organism-based
[10] = system: Human immunodeficiency virus 1; experiment: Antiviral activity against HIV1 NL4-3 infected in human MT4 cells at 1 uM after 37 passages by MTT assay; format: functional, organism-based
[11] = system: Human immunodeficiency virus 1; experiment: Antiviral activity against HIV1 NL4-3 infected in human MT4 cells after 50 passages by MTT assay; format: functional, organism-based
[12] = system: Human immunodeficiency virus 1; experiment: Antiviral activity against HIV1 expressing protease L10I/L24I/M46I/V82I/I84V mutant infected in human MT4 cells selected after 50 passages of GRL-216 by MTT assay; format: functional, organism-based; details: Human immunodeficiency virus 1, MT4
[13] = system: Human immunodeficiency virus 1; experiment: Antiviral activity against HIV1 expressing protease L10F/M46I/T91S mutant infected in human MT4 cells selected at 1 uM of GRL-246 by MTT assay; format: functional, organism-based; details: Human immunodeficiency virus 1, MT4
[14] = system: Human immunodeficiency virus 1; experiment: Antiviral activity against HIV1 expressing protease L10F/M46L/I50V/A71Vmutant infected in human MT4 cells selected at 1 uM of GRL-286 by MTT assay; format: functional, organism-based; details: Human immunodeficiency virus 1, MT4
[15] = system: Human immunodeficiency virus 1; experiment: Antiviral activity against HIV1 expressing protease L10F/M46M,I/Q61Q mutant infected in human MT4 cells selected at 1 uM of GRL-396 by MTT assay; format: functional, organism-based; details: Human immunodeficiency virus 1, MT4
[16] = molecular target: Protease (Human immunodeficiency virus 1) (UniProt Q9YQ12); experiment: Inhibition of protease dimerization in HIV1 infected in COS7 cells at 0.1 uM by FRET based assay; format: cell-based; details: COS-7
[17] = system: Human immunodeficiency virus 1; experiment: Antiviral activity against wild type HIV1 NL4-3 infected in human MT4 cells by p24 Gag protein production inhibition assay; details: Human immunodeficiency virus 1, NL4-3, MT4
[18] = system: Human immunodeficiency virus 1; experiment: Ratio of EC50 for multidrug-resistant HIV1 isolate JSL to EC50 for wild type HIV1 ERS104 containing protease […] infected in human PHA-PBMC cells
[19] = system: Human immunodeficiency virus 1; experiment: Antiviral activity against wild type HIV1 ERS104 containing protease L63P mutant infected in human PHA-PBMC cells by p24 Gag protein production inhibition assay; details: Human immunodeficiency virus 1, ERS104, PBMC
[20] = system: Human immunodeficiency virus 1; experiment: Antiviral activity against HIV1 expressing protease L10F/M46I/I54V/V82A mutant infected in human MT4 cells selected at 5 uM of Lopinavir by p24 Gag protein production inhibition assay; details: Human immunodeficiency virus 1, MT4
[21] = system: Human immunodeficiency virus 1; experiment: Antiviral activity against HIV1 expressing protease L10I/G48V/I54V/A71V/I84V/L90M mutant infected in human MT4 cells selected at 5 uM of saquinavir by p24 Gag protein production inhibition assay; details: Human immunodeficiency virus 1, MT4
[22] = system: Human immunodeficiency virus 1; experiment: Antiviral activity against HIV1 expressing protease L10F/M46I/I50V/A71V/I84V/L90M mutant infected in human MT4 cells selected at 5 uM of amprenavir by p24 Gag protein production inhibition assay; details: Human immunodeficiency virus 1, MT4
[23] = system: Human immunodeficiency virus 1; experiment: Antiviral activity against HIV1 expressing protease L23I/E34Q/K43I/M46I/I50L/G51A/L63P/A71V/V82A/T91A mutant infected in human MT4 cells selected at 5 uM of atazanavir by p24 Gag protein production inhibition assay; details: Human immunodeficiency virus 1, MT4
[24] = system: Human immunodeficiency virus 1; experiment: Antiviral activity against multidrug-resistant HIV1 isolate MM containing L10I, K43T, M46L, I54V, L63P, A71V, V82A, L90M, and Q92K mutant infected in human PHA-PBMC cells by p24 Gag protein production inhibition assay; details: Human immunodeficiency virus 1, isolate MM
[25] = system: Human immunodeficiency virus 1; experiment: Antiviral activity against multidrug-resistant HIV1 isolate TM containing L10I, K14R, R41K, M46L, I54V, L63P, A71V, V82A, L90M, and I93L mutant infected in human PHA-PBMC cells by p24 Gag protein production inhibition assay; details: Human immunodeficiency virus 1, isolate TM
[26] = system: Human immunodeficiency virus 1; experiment: Antiviral activity against multidrug-resistant HIV1 isolate G containing L10I, V11I, T12E, I15V, L19I,R41K, M46L, L63P, A71T, V82A, and L90M mutant infected in human PHA-PBMC cells by p24 Gag protein production inhibition assay; details: Human immunodeficiency virus 1, isolate G
[27] = system: Human immunodeficiency virus 1; experiment: Antiviral activity against multidrug-resistant HIV1 isolate C containing protease L10I, I15V, K20R, L24I, M36I, M46L, I54V, I62V, L63P, K70Q, V82A, and L89M mutant infected in human PHA-PBMC cells by p24 Gag protein production inhibition assay; details: Human immunodeficiency virus 1, isolate C
[28] = system: Human immunodeficiency virus 1; experiment: Antiviral activity against multidrug-resistant HIV1 isolate JSL containing L10I, L24I, I33F, E35D, M36I, N37S, M46L, I54V, R57K, I62V, L63P, A71V, G73S, and V82A mutant infected in human PHA-PBMC cells by p24 Gag protein production inhibition assay; details: Human immunodeficiency virus 1, isolate JSL
[29] = system: Human immunodeficiency virus 1; experiment: Ratio of EC50 for multidrug-resistant HIV1 isolate C containing protease L10I, I15V, K20R, L24I, M36I, M46L, I54V, I62V, L63P, K70Q, V82A, and L89M mutant to EC50 for wild type HIV1 ERS104 containing protease L63P mutant infected in human PHA-PBMC cells
[30] = system: Human immunodeficiency virus 1; experiment: Antiviral activity against multidrug-resistant HIV1 isolate B containing protease L10I, K14R, L33I, M36I,M46I, F53I, K55R, I62V, L63P, A71V, G73S, V82A, L90M, and I93L mutant infected in human PHA-PBMC cells by p24 Gag protein production inhibition assay; details: Human immunodeficiency virus 1, isolate B
[31] = system: Human immunodeficiency virus 1; experiment: Antiviral activity against HIV1 NL4-3 infected in human MT4 cells at 0.26 uM after 50 passages by MTT assay; format: functional, organism-based
[32] = system: Human immunodeficiency virus type 1 protease (Human immunodeficiency virus 1), Q72874 [L24I,V82I,I84V]; experiment: Inhibition of protease L24I/V82I/I84V[…] dimerization in HIV1 infected in COS7 cells at 0.1 uM by FRET based assay; format: cell-based; details: COS-7

Compound | EC50 [1] [µM] | EC50 [2] [µM] | EC50 [3] [µM] | CC50 at 168 h [4] [µM] | EC50 [6] [µM] | EC50 [12] [µM] | EC50 [13] [µM] | EC50 [14] [µM] | EC50 [15] [µM] | inhibition [16] | EC50 [17] [µM] | EC50 [19] [µM] | EC50 [20] [µM] | EC50 [21] [µM] | EC50 [22] [µM] | EC50 [23] [µM] | EC50 [24] [µM] | EC50 [25] [µM] | EC50 [26] [µM] | EC50 [27] [µM] | other results
COc1ccc2c(c1)OCCC/C=C\CCCCN(C[C@@H](O)[C@H](Cc1ccccc1)NC(=O)O[C@H]1CO[C@H]3OCC[C@H]31)S2(=O)=O | 0.004 | 0.018 | 0.025 | 33.1 | 0.041 | 0.19 | 0.33 | > 1 | 0.25 | Active | 0.009 | 0.007 | 0.35 | 0.046 | > 1 | 0.03 | 0.055 | 0.072 | 0.028 | 0.029 | selectivity ratio [5]: 8280; Ratio EC50 [7]: 4; Activity [8]: inactive; Activity [9]: inactive; Activity [10]: inactive; Activity [11]: inactive; Ratio EC50 [18]: 15; EC50 [28]: 0.21 µM; Ratio EC50 [29]: 4; EC50 [30]: 0.089 µM
COc1ccc2c(c1)OCC/C=C\CCCCN(C[C@@H](O)[C@H](Cc1ccccc1)NC(=O)O[C@H]1CO[C@H]3OCC[C@H]31)S2(=O)=O | 0.002 | 0.01 | 0.017 | 48.8 | 0.04 | 0.094 | 0.3 | > 1 | 0.073 | Active | 0.005 | 0.005 | 0.035 | 0.02 | > 1 | 0.023 | 0.033 | 0.027 | 0.057 | 0.044 | Activity [31]: Active; inhibition [32]: Active; EC50 [28]: 0.073 µM; EC50 [30]: 0.037 µM
